In patent US20090142269A1, “ISOTOYPICALLY-LABELED BENZOTHIAZOLE COMPOUNDS AS IMAGING AGENTS FOR AMYLOIDOGENIC PROTEINS” (UNIVERSITY OF OITTSBURGH-OF THE COMMONWEALTH SYSTEM OF …, priority 2005, published 2009):
pKi: −log10 of the molar value.

molecular target: T1, synthetic Aβ(1-40) (Homo sapiens, UniProt P05067); test: Competition of [3H]BTA-1 binding from synthetic Aβ(1-40); conditions: in vitro, aggregated amyloid
T1 construct: analyzed, using synthetic Aβ(1-40)
Method: The characteristics of benzothiazole derivative binding were analyzed, using synthetic Aβ(1-40) and 2-(4′-[^3H]methylamino-phenyl)-benzothiazole ([^3H]BTA-1) in phosphate-buffered saline (pH 7.4), as previously described. Klunk et al., Life Sci. 69:1471 (2001); Mathis et al., Bioorg. Med. Chem. Lett. 12: 295 (2002).
The characteristics of benzothiazole derivative binding were analyzed using synthetic Aβ(1-40) and 2-(4′ [^3H]methylamino-phenyl)-benzothiazole ([^3H]BTA-1) in phosphate-buffered saline (pH 7.4), as previously described. Klunk et al., Life Sci. 69:1471 (2001); Mathis et al., Bioorg. Med. Chem. Lett., 12:295 (2002). The table below lists the inhibition constants (Ki) of exemplary benzothiazole compounds shown for competition of [^3H]BTA-1 binding from synthetic Aβ(1-40).

T1 sequence (P05067 672-711): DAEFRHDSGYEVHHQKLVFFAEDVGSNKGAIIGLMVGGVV

| Structure (SMILES) | affinity of the ligand in vitro for aggregated amyloid |
| --- | --- |
| COc1ccc2nc(-c3ccc([18F])cc3)sc2c1 [[F-18]-6-Methoxy-2-(4′-fluorophenyl)benzothiazole] | relatively high affinity |

same assay, conditions: inhibition constant for competition of [3H]BTA-1 binding from synthetic Aβ(1-40), phosphate-buffered saline pH 7.4

| Structure (SMILES) | pKi |
| --- | --- |
| COc1ccc2sc(-c3ccc(F)cc3)nc2c1OC | 7.09 |
| COc1cc(OC)c2nc(-c3ccc(F)cc3)sc2c1 | 6.94 |
| COc1ccc(OC)c2sc(-c3ccc(F)cc3)nc12 | 6.48 |
| COc1cccc2sc(-c3ccc(F)cc3)nc12 | 6.22 |
| Oc1cccc2sc(-c3ccc(F)cc3)nc12 | 6.42 |
| COc1cc2nc(-c3ccc(F)cc3)sc2cc1OC | 7.05 |
| Oc1ccc2sc(-c3ccc(F)cc3)nc2c1 | 6.30 |
| COc1ccc2nc(-c3ccc(F)c(F)c3)sc2c1 | 6.81 |
| N#Cc1ccc2nc(-c3ccc(F)cc3)sc2c1 | 6.88 |
| CS(=O)(=O)c1ccc2nc(-c3ccc(F)cc3)sc2c1 | 5.90 |
| Nc1ccc2nc(-c3ccc(F)cc3)sc2c1 | 7.07 |
| Oc1ccc2nc(-c3ccc(F)c(Cl)c3)sc2c1 | 6.89 |
| OCc1ccc(-c2nc3ccc(O)cc3s2)cc1 | 6.51 |
| Oc1ccc2nc(-c3ccc(F)cc3)sc2c1 | 6.74 |
| Oc1cccc2nc(-c3ccc(F)cc3)sc12 | 6.73 |
| O=[N+]([O-])c1cc(F)ccc1-c1nc2ccccc2s1 | 6.09 |
| Nc1c(F)c(F)c(-c2nc3ccc(O)cc3s2)c(F)c1F | 6.00 |
| COc1ccc2nc(-c3c(F)c(F)c(N)c(F)c3F)sc2c1 | 6.92 |
| CNc1c(F)c(F)c(-c2nc3ccc(O)cc3s2)c(F)c1F | 6.56 |
| CNc1cc(N)ccc1-c1nc2ccc(O)cc2s1 | 7.02 |
| CNc1ccc(-c2nc3ccccc3s2)cc1CCCF | 7.11 |

Continued, values first:

| pKi | Structure (SMILES) |
| --- | --- |
| 7.29 | COc1cc(O)c2nc(-c3ccc(F)cc3)sc2c1 |
| 7.31 | CNc1cc(F)ccc1-c1nc2ccc(O)cc2s1 |
| 7.33 | Oc1ccc2nc(-c3ccc(CF)cc3)sc2c1 |
| 7.34 | CNc1c(F)cccc1-c1nc2ccc(O)cc2s1 |
| 7.36 | Fc1ccc(-c2nc3ccccc3s2)cc1 |
| 7.47 | COc1cc(OC)c2sc(-c3ccc(F)cc3)nc2c1 |
| 7.50 | Oc1ccc2nc(-c3ccc(F)cc3O)sc2c1 |
| 7.57 | FCCCOc1ccc2nc(-c3ccc(F)cc3)sc2c1 |
| 7.59 | CNc1c(F)c(F)c(-c2nc3ccc(OC)cc3s2)c(F)c1F |
| 7.66 | Nc1ccc(F)cc1-c1nc2ccc(O)cc2s1 |
| 7.71 | Nc1ccccc1-c1nc2ccccc2s1 |
| 7.72 | Cc1ccc(-c2nc3ccccc3s2)cc1 |
| 7.72 | Oc1ccc2nc(-c3ccc(F)c(F)c3)sc2c1 |
| 7.78 | COc1ccc2nc(-c3ccc(F)cc3OC)sc2c1 |
| 7.83 | COc1cccc2nc(-c3ccc(F)cc3)sc12 |
| 7.83 | Nc1cc(F)ccc1-c1nc2ccc(O)cc2s1 |
| 7.85 | Nc1cccc(F)c1-c1nc2ccc(O)cc2s1 |

| pKi | Structure (SMILES) |
| --- | --- |
| 7.87 | COc1ccc2sc(-c3ccc(F)cc3)nc2c1 |
| 7.97 | CN(C)c1ccc2nc(-c3ccc(O)cc3)sc2c1 |
| 8.01 | FCCOc1ccc2nc(-c3ccc(F)cc3)sc2c1 |
| 8.06 | Brc1ccc(-c2nc3ccccc3s2)cc1 |
| 8.13 | CNc1ccc2nc(-c3ccc(F)cc3)sc2c1 |
| 8.22 | COc1ccc2nc(-c3ccc(F)cc3)sc2c1 |
| 8.27 | CNc1ccc(-c2nc3ccc(O)cc3s2)c(N)c1 |
| 8.28 | CNc1ccc2nc(-c3ccc(O)c(F)c3)sc2c1 |
| 8.31 | Nc1cc(F)ccc1-c1nc2ccccc2s1 |
| 8.31 | CNc1ccc(-c2nc3ccc(OCCOCCOCCF)cc3s2)cc1 |
| 8.51 | Nc1c(F)cccc1-c1nc2ccc(O)cc2s1 |
| 8.59 | Ic1ccc(-c2nc3ccccc3s2)cc1 |
| 8.74 | CNc1ccc2nc(-c3ccc(OC)cc3)sc2c1 |
| 8.89 | COc1ccc(-c2nc3ccc(N(C)C)cc3s2)cc1 |
| 8.92 | CNc1ccc2nc(-c3ccc(O)cc3F)sc2c1 |
| 8.96 | COc1ccc2nc(-c3ccc(F)cc3O)sc2c1 |

test system: not listed separately; test: Baboon brain entry study (PET time-activity curves); type: in vivo; conditions: 40 kg baboon, 8 mCi intravenously, PET brain imaging over 2 h post injection
Method: A 40 kg baboon was anesthesized, immobilized, and placed on a ventilator. The baboon was positioned in a PET scanner to image the brain, and a transmission scan was performed to correct for attenuation. The baboon was injected intravenously with a solution containing 8 mCi of [F-18]-6-Methoxy-2-(4′-fluorophenyl)benzothiazole, and the brain was imaged in a series of increasing data collection time bins over 2 h post injection. Following data acquisition, the images were reconstructed and regions of interest were drawn. Decay and […] corrected time-activity curves (TAC) were generated for each of the regions to determine the quantitative time course of radioactivity in each brain region.

| Structure (SMILES) | brain penetration of the radiotracer | clearance of radioactivity from normal baboon brain |
| --- | --- | --- |
| COc1ccc2nc(-c3ccc([18F])cc3)sc2c1 [[F-18]-6-Methoxy-2-(4′-fluorophenyl)benzothiazole] | excellent brain penetration | rapid clearance |
